Experimental data: US12097194B2, “Combination therapy for treating blood cancer” (SIGNALCHEM LIFESCIENCES CORPORATION, priority 2018, dated 2024)
Like-named read-outs stand apart in the source and are kept apart here.

Tests used:
[1] = test system: CD34+ stem and progenitor cells from AML patients; assay: Patient-derived xenograft (PDX) model of AML in NRG-3GS mice; assay type: in vivo; settings: 50 mg/kg QD each agent, oral gavage, 4 weeks, compared to healthy non-leukemic mice
Description: The relative effectiveness of Compound A and the combination of Compound A and ABT-199 in targeting primitive leukemic cells and/or to prevent leukemia development were investigated in in vivo assays. First, highly purified CD34+ stem and progenitor cells from two different AML patients (with high Axl and GAS6 expression; cohort 1=AML patient #2, cohort 2=AML patient #14, as determined in Example 2) were transduced with a GFP/Luciferase lentivirus reporter to allow non-invasive in vivo imaging (IVIS) of the mice to track leukemia development. […]
Leukemic cell burden was also measured in peripheral blood (PB), bone marrow (BM) and spleens in one set of euthanized mice (one mouse from each treatment group in both cohorts, respectively) and immunophenotypes of engrafted cells determined with fluorescently-labelled CD45, CD34, CD38, CD33, CD15, CD14, CD19 surface markers. Splenomegaly was assessed by spleen sizes and weights (FIG. 5).
All remaining mice were monitored for symptoms of disease development (weight loss, lethargy etc.) and survival between treatment groups compared. […] P-values were calculated with the Log-rank (Mantel-Cox) test and significant differences between groups are indicated.

MV4-11 AML cell line = assay: Compound dose response assay (trypan blue % viability) and CompuSyn combination analysis, MV4-11; assay type: cell-based; settings: Homo sapiens
Procedure: (§1) The AML cell lines Molm-13 and MV4-11 were obtained from DSMZ. The cells were maintained in culture using RPMI-1640 containing 10% heat-inactivated serum at 37° C./5% CO2. For all experiments, unless otherwise specified, the above-mentioned culture conditions were used. The BCL-2 inhibitors venetoclax (ABT-199) and navitoclax (ABT-263) were purchased from Chemietek. The Axl inhibitor 3-(5-(cyclopropylmethyl)-1,3,4-oxadiazol-2-yl)-5-(1-(piperidin-4-yl)-1H-pyrazol-4-yl)pyridin-2-amine (Compound A) was synthesized according to the method disclosed in WO2015/081257.
(§2) The AML cells Molm-13 and MV4-11 were plated at 5×10^4 cells/mL in 24-well plates and dosed the following day using single or combination of drugs with vehicle (DMSO) only controls. Each cell treatment was conducted in duplicates. Cells were collected 48- or 72-hours post drug treatment, mixed 1:1 with trypan blue and counted manually using a hemocytometer. A total of 100 cells (at the least) were counted for each sample. The % viability was calculated and normalized to vehicle treated controls. Individual IC50 of each compound was determined in each cell line using increasing doses. Four doses less than the IC50 for each compound for each cell line were chosen to conduct the combination studies. The IC50 values were calculated using Prism Version 5.01. CompuSyn software Version 1.0 was used to calculate the combination indices.
(§3) The fraction affected (FA) at the same dose was much higher for the compound combination groups compared to that of the single compound groups.

Molm-13 AML cell line = assay: Compound dose response assay (trypan blue % viability) and CompuSyn combination analysis, Molm-13; assay type: cell-based; settings: Homo sapiens
Procedure: as §1, §2, §3

MV4-11 cells = assay: MV4-11 cell line xenograft model of AML in NRG mice; assay type: in vivo; settings: MV4-11 xenograft, 50 mg/kg QD each agent, oral; for bioluminescent signal (IVIS) / leukemia progression: 3 weeks (15 doses)
Procedure: To investigate the safety and the effectiveness of Compound A monotherapy and combination therapy with ABT-199 for eliminating human leukemic cells in animals, a cell-line based xenograft mouse study was performed. First, MV4-11 cells were transduced with a GFP/Luciferase lentivirus vector to allow sorting/analyzing of human leukemic cells in mice and the non-invasive in vivo imaging system (IVIS) of the mice to track leukemia development and leukemia forming sites. Then, 2.5 million of GFP positive MV4-11 cells per mouse were injected intravenously into irradiated male NRG mice. Two weeks after injection, IVIS imaging was performed to confirm leukemia formation and consistent levels of leukemia burden in each mouse. Following that, mice received 3 weeks (total of 15 doses) of oral treatment with vehicle (control), 50 mg/kg Compound A alone QD, 50 mg/kg ABT-199 alone QD or a combination of Compound A (50 mg/kg, QD) and ABT-199 (50 mg/kg, QD).
After the treatment period, another round of IVIS imaging was performed to evaluate the effectiveness of the treatments. FIG. 8A and FIG. 8B show the bioluminescent imaging of representative mice before treatment and after oral gavages with indicated treatments, respectively. Darkened areas represent sites of observed bioluminescence resultant from presence of GFP/Luciferase leukemic cells. For comparison, healthy mice with no transduced leukemic cells (“no cells”) are also shown.
A representative group of mice was then sacrificed to compare engraftment of leukemic cells in peripheral blood (PB), bone marrow (BM), spleens and livers of each treatment group. Infiltration of leukemic cells into hematopoietic organs as spleen and liver was assessed by weights and histopathologic analysis. FIGS. 9A and 9B show spleen sizes and weights, and Haemotoxylin and Eosin staining of representative mice from each treatment group as indicated, respectively.
The remaining mice were monitored for survival between treatment groups. […] Median survival for each treatment group is indicated in days in brackets. P-values were calculated with the Log-rank (Mantel-Cox) test and significant differences between groups are indicated.

[2] = BCL-2 inhibitor + Cmpd A, read-out: IC50 (nM) of BCL-2 inhibitor in the presence of Compound A
[3] = single agent, % viability normalized to vehicle, 48 or 72 hours post treatment, read-out: IC50 (nM), single agent

| IC50 (MV4-11 AML cell line; [2]) [nM] | IC50 (Molm-13 AML cell line; [2]) [nM] | SMILES | splenomegaly (spleen sizes and weights) [1] | IC50 (MV4-11 AML cell line; [3]) [nM] | IC50 (Molm-13 AML cell line; [3]) [nM] | spleen enlargement (spleen sizes and weights) (MV4-11 cells; 3 weeks) | bioluminescent signal (IVIS) / leukemia progression (MV4-11 cells) | leukemia propagating activity in vivo (MV4-11 cells; 3 weeks) |
| --- | --- | --- | --- | --- | --- | --- | --- | --- |
| 0.99 | 9.9 | CC1(C)CCC(CN2CCN(c3ccc(C(=O)NS(=O)(=O)c4ccc(NCC5CCOCC5)c([N+](=O)[O-])c4)c(Oc4cnc5[nH]ccc5c4)c3)CC2)=C(c2ccc(Cl)cc2)C1 [ABT-199, Venetoclax] | significantly enlarged | 20.5 | 55.9 | increased size and weight in the spleens | aggressive leukemia progression |  |
| 36.8 | 116 | CC1(C)CCC(c2ccc(Cl)cc2)=C(CN2CCN(c3ccc(C(=O)NS(=O)(=O)c4ccc(N[C@H](CCN5CCOCC5)CSc5ccccc5)c(S(=O)(=O)C(F)(F)F)c4)cc3)CC2)C1 [ABT-263, Navitoclax] |  | 93.5 | 358 |  |  |  |
|  |  | Nc1ncc(-c2cnn(C3CCNCC3)c2)cc1-c1nnc(CC2CC2)o1 [Compound A, 3-(5-(cyclopropylmethyl)-1,3,4-oxadiazol-2-yl)-5-(1-(piperidin-4-yl)-1H-pyrazol-4-yl)pyridin-2-amine] | significantly enlarged | 421 | 430 | no sign of spleen enlargement | dramatically lower intensity bioluminescent signals compared to vehicle and ABT-199 treated mice | can reduce leukemia propagating activity in vivo |
